The values below come from PubChem BioAssay (NCI).

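96-well plates; 48 h exposure; 5 concentrations. Endpoints by linear interpolation between flanking doses. Not reached: highest tested concentration assigned. At the GI50, growth is halved. TGI marks complete inhibition of growth.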

Among the test systems are M14 melanoma; A549 NSCLC; UO-31 renal; K-562 leukemia; CCRF-CEM leukemia; SN12C renal; NCI/ADR-RES ovarian; HCC-2998 colon; OVCAR-4 ovarian; HOP-92 NSCLC.
Assay in all cases: NCI anticancer screen, dose series, 48 h

On to `Nc1nc(-c2ccccc2)nc2c1[n+]([O-])c1ccccc1[n+]2[O-]`, for which the TGI in the test on M14 melanoma, in the test with A549 NSCLC, in the test on UO-31 renal, in the test with K-562 leukemia, with CCRF-CEM leukemia and in the test with SN12C renal was > 100 µM throughout. The TGI in the test on NCI/ADR-RES ovarian and with HCC-2998 colon was > 100 µM in each case.
With `c1cc(CNCCN2CCNCC2)ccn1`, the TGI in the test on M14 melanoma, with OVCAR-4 ovarian, in the test with A549 NSCLC, in the test on UO-31 renal, in the test on K-562 leukemia and in the test on SN12C renal was > 100 µM each time. For the same molecule, the TGI with NCI/ADR-RES ovarian and with HOP-92 NSCLC was > 100 µM throughout.
Turning to `COc1cc(/C=C/C(=O)c2ccc(NC(=O)CN3CCN(c4cc5c(cc4F)c(=O)c(C(=O)O)cn5C4CC4)CC3)cc2)cc(OC)c1OC`, the GI50 in the test on M14 melanoma is 1.15 µM; in the test on OVCAR-4 ovarian it was 1.38 µM; in the test with A549 NSCLC it was 0.368 µM; in the test on UO-31 renal it was 1.38 µM; with K-562 leukemia, 0.36 µM; with SN12C renal, 0.632 µM. The GI50 in the test with NCI/ADR-RES ovarian is > 75.9 µM; in the test on HCC-2998 colon, 3.16 µM; with HOP-92 NSCLC it was 1.79 µM. Moreover, the TGI with M14 melanoma is 13.6 µM; in the test on OVCAR-4 ovarian, 22.3 µM; in the test with A549 NSCLC it was 2.14 µM; with UO-31 renal, 7.78 µM; in the test with K-562 leukemia, > 100 µM; in the test with SN12C renal, 9.01 µM. The TGI with NCI/ADR-RES ovarian is > 100 µM; with HCC-2998 colon, 14.1 µM; with HOP-92 NSCLC, 7.58 µM.
Take `CCCCS(=O)(=O)CCC(N)C(=O)O` (stereo not given): the TGI in the test with M14 melanoma, in the test on OVCAR-4 ovarian, in the test with A549 NSCLC, with UO-31 renal, in the test on K-562 leukemia and in the test with CCRF-CEM leukemia was > 100 µM each time. The TGI in the test on SN12C renal, in the test on NCI/ADR-RES ovarian and in the test on HCC-2998 colon was > 100 µM in each case.
`COc1cc2c(cc1C)NC(=O)/C2=C\c1cccc(Oc2ccccc2)c1`: the GI50 in the test with M14 melanoma was 16.6 µM; in the test with OVCAR-4 ovarian, 14.4 µM; in the test on A549 NSCLC, 20.6 µM; with UO-31 renal, 11.7 µM; with K-562 leukemia, 9.83 µM; in the test on CCRF-CEM leukemia, 6.85 µM. For the same molecule, the GI50 in the test with SN12C renal was 13.2 µM; in the test on NCI/ADR-RES ovarian it was 12.9 µM; with HCC-2998 colon it was 11.6 µM. For the same molecule, the TGI was 31 µM in the test on M14 melanoma; 35.6 µM in the test with OVCAR-4 ovarian; > 100 µM with A549 NSCLC; 27.5 µM in the test on UO-31 renal; 39.1 µM in the test with K-562 leukemia; 24.5 µM with CCRF-CEM leukemia. The TGI in the test on SN12C renal came out at 25.9 µM; with NCI/ADR-RES ovarian it was 32.4 µM; in the test with HCC-2998 colon, 24.4 µM.
Regarding `O=C1c2ccccc2C(=O)c2c1ccc(C1C(=O)c3ccccc3C1=O)c2-c1c(C2C(=O)c3ccccc3C2=O)ccc2c1C(=O)c1ccccc1C2=O`, the TGI in the test with M14 melanoma, in the test with OVCAR-4 ovarian, with A549 NSCLC, with UO-31 renal, in the test with K-562 leukemia and in the test on SN12C renal was > 100 µM each time. Also, the TGI with NCI/ADR-RES ovarian and in the test on HOP-92 NSCLC was > 100 µM in each case.
In the case of `CN(C)c1ccc(Nc2cc(-c3cccc(OC(F)(F)F)c3)nc3ccc(N4CCCC4)cc23)cc1`, the GI50 was 1.7 µM with M14 melanoma; 1.98 µM in the test on OVCAR-4 ovarian; 1.7 µM with A549 NSCLC; 1.77 µM with UO-31 renal; 1.78 µM in the test on SN12C renal; 1.92 µM in the test on NCI/ADR-RES ovarian. Moreover, the results for the GI50 in the test on HCC-2998 colon and in the test on HOP-92 NSCLC were 1.85 µM and 1.71 µM, respectively. The TGI in the test with M14 melanoma was 3.32 µM; in the test on OVCAR-4 ovarian, 3.77 µM; with A549 NSCLC, 3.22 µM; in the test on UO-31 renal it was 3.17 µM; in the test on SN12C renal, 3.5 µM; in the test on NCI/ADR-RES ovarian, 3.88 µM. For the same molecule, the figures for the TGI with HCC-2998 colon and in the test with HOP-92 NSCLC were 3.36 µM and 3.71 µM, respectively.
On to `O=C(/C=C/c1cc([N+](=O)[O-])ccc1Cl)c1ccccc1`, for which the GI50 in the test with M14 melanoma is 10.2 µM; with OVCAR-4 ovarian it was 33.9 µM; with A549 NSCLC, 22 µM; with UO-31 renal, 11.7 µM; in the test with K-562 leukemia it was 6.66 µM; in the test with CCRF-CEM leukemia, 26.9 µM. Further, the GI50 in the test on SN12C renal is 19.6 µM; in the test with NCI/ADR-RES ovarian, 24.4 µM; with HCC-2998 colon it was 3.3 µM. Moreover, the TGI is 22.5 µM with M14 melanoma; > 100 µM in the test with OVCAR-4 ovarian; 92.9 µM in the test on A549 NSCLC; 26.4 µM in the test on UO-31 renal; > 100 µM in the test on K-562 leukemia; > 100 µM in the test with CCRF-CEM leukemia. The TGI amounted to 54 µM in the test with SN12C renal, 91.7 µM with NCI/ADR-RES ovarian and 9.27 µM in the test with HCC-2998 colon.
As for `Cn1ccnc1C(=O)/C=C/c1ccccc1`, the GI50 was 3.41 µM in the test on M14 melanoma; 7.47 µM with OVCAR-4 ovarian; 2.98 µM in the test on A549 NSCLC; 4.69 µM in the test with UO-31 renal; 2.74 µM in the test on K-562 leukemia; 2.7 µM in the test on CCRF-CEM leukemia. Further, the results for the GI50 with SN12C renal, in the test on NCI/ADR-RES ovarian and in the test on HCC-2998 colon were 3 µM, 3.11 µM and 2.36 µM, respectively. Also, the TGI in the test on M14 melanoma is 10.4 µM; in the test with OVCAR-4 ovarian, 26 µM; in the test with A549 NSCLC, 11.5 µM; in the test with UO-31 renal it was 71.4 µM; in the test on K-562 leukemia it was 6.86 µM; in the test with CCRF-CEM leukemia it was 7.17 µM. Also, the TGI in the test with SN12C renal came out at 17.3 µM; in the test with NCI/ADR-RES ovarian, 8.95 µM; in the test with HCC-2998 colon, 5.38 µM.
As to `O=C(CCC(=O)C(C(=O)c1ccccc1)c1ccccc1)Nc1cccc(C(F)(F)F)c1` (stereo not given), the TGI in the test with M14 melanoma, with OVCAR-4 ovarian, in the test with A549 NSCLC, with UO-31 renal, with K-562 leukemia and in the test on CCRF-CEM leukemia was > 100 µM in each case. For the same molecule, the TGI in the test with SN12C renal, in the test with HCC-2998 colon and in the test with HOP-92 NSCLC was > 100 µM in each case.
On to `COc1cc(OC)c(C2CC=Cc3c(OC)cc(OC)c(OC)c32)cc1OC` (stereo not given), for which the TGI in the test with M14 melanoma, with OVCAR-4 ovarian, with A549 NSCLC, in the test on UO-31 renal, in the test on K-562 leukemia and in the test with CCRF-CEM leukemia was > 100 µM each time. Also, the TGI with SN12C renal, in the test on HCC-2998 colon and in the test with HOP-92 NSCLC was > 100 µM in each case.
For `COc1ccc(OC)c(/C=C(/C)[N+](=O)[O-])c1`, the GI50 in the test on M14 melanoma was 2.14 µM; in the test on OVCAR-4 ovarian it was 1.98 µM; in the test with A549 NSCLC it was 4.54 µM; in the test with UO-31 renal it was 1.42 µM; in the test on K-562 leukemia, 2.57 µM; in the test with CCRF-CEM leukemia it was 2.66 µM. Also, the GI50 was 2.17 µM in the test on SN12C renal, 3.22 µM in the test on NCI/ADR-RES ovarian and 1.84 µM in the test on HCC-2998 colon. Besides, the TGI in the test on M14 melanoma is 4.24 µM; in the test with OVCAR-4 ovarian, 3.5 µM; in the test with A549 NSCLC, 17.5 µM; in the test on UO-31 renal, 2.8 µM; in the test with K-562 leukemia it was > 100 µM; in the test with CCRF-CEM leukemia, > 100 µM. The TGI came out at 5.02 µM in the test with SN12C renal, 11.5 µM in the test with NCI/ADR-RES ovarian and 3.41 µM in the test with HCC-2998 colon.
As for `NCCCNCCCCN(CCCN)/[N+]([O-])=N\O`, the TGI with M14 melanoma, with OVCAR-4 ovarian, in the test with A549 NSCLC, with UO-31 renal, in the test on K-562 leukemia and in the test on CCRF-CEM leukemia was > 100 µM each time. Also, the TGI in the test on SN12C renal, in the test with HCC-2998 colon and in the test on HOP-92 NSCLC was > 100 µM each time.
In the case of `COC(=O)C1=C(C)NC(C)=C(C(=O)OC)C1/C=C(Cl)/C=C/c1ccccc1`, the GI50 was 16.2 µM in the test on M14 melanoma; 30.4 µM with OVCAR-4 ovarian; 28.8 µM with A549 NSCLC; 23.9 µM with UO-31 renal; 22.8 µM in the test with K-562 leukemia; 29.6 µM in the test on CCRF-CEM leukemia. Further, the GI50 in the test on SN12C renal is 19.2 µM; in the test on NCI/ADR-RES ovarian, 18.4 µM; in the test with HCC-2998 colon, 14 µM. The TGI is 30.5 µM in the test with M14 melanoma; > 100 µM in the test on OVCAR-4 ovarian; > 100 µM with A549 NSCLC; > 100 µM with UO-31 renal; 54.7 µM in the test on K-562 leukemia; 60 µM in the test on CCRF-CEM leukemia. Also, the TGI with SN12C renal was 41.6 µM; in the test on NCI/ADR-RES ovarian, 44.3 µM; in the test on HCC-2998 colon, 27.2 µM.
`COC(=O)CCCC(=O)O`: the TGI in the test with M14 melanoma, with OVCAR-4 ovarian, with A549 NSCLC, in the test on UO-31 renal, in the test with SN12C renal and with NCI/ADR-RES ovarian was > 100 µM in each case. Further, the TGI in the test on HOP-92 NSCLC was > 100 µM.
On to `C=C1CC/C=C(\C)C(=O)C[C@@H]2[C@@H]1CC2(C)C`, for which the TGI with M14 melanoma was 19.7 µM; in the test on OVCAR-4 ovarian, 6.48 µM; in the test with A549 NSCLC it was > 56 µM; in the test on UO-31 renal it was 7.64 µM; in the test with K-562 leukemia it was > 100 µM; in the test on SN12C renal it was 13 µM. The TGI in the test with NCI/ADR-RES ovarian was 46.6 µM; with HCC-2998 colon, 12.7 µM; with HOP-92 NSCLC it was 6.4 µM.
